This assay addresses T1, 11b-HSD1 (Homo sapiens, UniProt P28845).
T1 construct: made in house; host or cells: E. coli DH10b-Tir
Put plainly: in vitro enzymatic 11b-HSD1 dehydrogenase activity assay. It is filed as biochemical. As to conditions: 11b-HSD1 dehydrogenase assay; 10 μM each of cortisol and NADP+, 50 nM enzyme, 60 minutes at room temperature; reference point for this assay.

For orientation: IC50 means the concentration that inhibits the measured activity by half. A higher IC50 goes with a need for much substance.

SMILES strings stand for the structures.

T1 sequence (P28845 24-292): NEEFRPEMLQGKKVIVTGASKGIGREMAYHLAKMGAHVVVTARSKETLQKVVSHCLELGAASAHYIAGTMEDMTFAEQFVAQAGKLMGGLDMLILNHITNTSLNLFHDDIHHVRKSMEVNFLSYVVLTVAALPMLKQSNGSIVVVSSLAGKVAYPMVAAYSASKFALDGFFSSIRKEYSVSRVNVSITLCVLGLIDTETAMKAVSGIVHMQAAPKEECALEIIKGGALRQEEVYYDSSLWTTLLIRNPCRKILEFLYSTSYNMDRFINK
Method: Provided below is an in vitro enzymatic 11b-HSD1 dehydrogenase activity assay for activity against 11b-HSD1.
The inhibitory properties of compounds relative to 11b-HSD1 may be determined using a white 384-well-plate format under the following reaction conditions: 50 mM Tris pH 7.5, 150 mM NaCl, 0.1 mM EDTA, 0.01% Brij35, 10 μM each of cortisol and NADP^+, 1% DMSO. Reaction product may be determined quantitatively by fluorescence intensity using a fluorescence plate reader (Molecular Devices Gemini) with a 340 nm excitation wavelength and a 460 nm emission wavelength.
The assay reaction may be initiated as follows: 4 μl buffer containing 25 μM cortisol and 25 μM NADP^+ was added to each well of the plate, followed by the addition of 2 μl of inhibitor (2 fold serial dilutions for 11 data points for each inhibitor) containing 5% DMSO. 4 μl of 125 nM 11b-HSD1 enzyme solution may be added to initiate the reaction (final enzyme concentrations was 50 nM). Fluorescence intensities of the resulting reaction mixtures may be measured after 60 minutes incubation at room temperature.
IC50 values may be calculated by non-linear curve fitting of the compound concentrations and fluorescence intensities to the standard IC50 equation.

In turn, `CCN(CC)C(=O)Cc1csc(NS(=O)(=O)c2cccc(Cl)c2C)n1` [BVT14225] showed an IC50 of 500 nM.
